We go through one compound from patent US4716153A, “Stable oral preparation of macrolide antibiotics and method for stabilizing the same” (priority 1982, dated 1987).

Structures are written as SMILES.

The nature of data set [1]: Stability in Japan Pharmacopoeia 1st solution (pH 1.2) at 37° C., with or without stabilizer (TLC densitometry, 232 nm). The data set is classed as physicochemical. An excerpt: The stabilizers showing pH 3-10 used in the invention may be substances having a buffering or antacid action and showing pH 3-10, preferably 5.5-6.5. These are, for example, neutral amino acids or their basic salts, basic salts of acidic amino acids, basic amino acids,basic salts of organic carboxylic acids,basic salts of polybasic organic carboxylic acids, basic salts of uronic acid or inorganic salt antacids. The neutral amino acids or basic salts thereof include glycine, alanine, aminobutyric acid, proline, leucine, isoleucine, methionine, threonine, serine, valine, or their aluminium salts, for example aluminium glycinate. Among these, glycine, alanine and aluminium glycinate, both of which show pH 5.5-6.5, are preferable. The basic salts of acidic amino acid include monobasic salts such as a monosodium, monopotassium or magnesium salt of glutaminic or aspartic acid. Among these monobasic salts, monosodium glutamate or monosodium aspartate is preferable. The basic amino acids include arginine, glutamine, asparagine, citrulin, tryptophane and histidine. Especially, histidine is preferable. The basic salts of monobasic organic carboxylic acid include basic salts such as sodium, potassium, magnesium or aluminium salts of saturated monobasic organic carboxylic acids such as acetic acid and propionic acid, of unsaturated monobasic organic acids such as acrylic acid, crotonic acid and vinylacetic acid, and of other monobasic organic acids such as lactic acid, pyruvic acid, glyceric acid and acetoacetic acid. The basic salts of polybasic organic carboxylic acid include mono-, di- or tri-sodium, potassium, magnesium, calcium or aluminium salts of saturated polybasic organic carboxylic acids such as oxalic acid, malonic acid, succinic acid, glutaric acid, adipic acid and pimelic acid, of unsaturated polybasic organic carboxylic acids such as maleic acid and fumaric acid, and of other polybasic organic carboxylic acids such as meso-oxalic acid, malic acid, oxalacetic acid and citric acid. Among these, trisodium citrate is preferable. The basic salts of uric acids include sodium salts of glucuronic acid, galacturonic acid or their polymers such as alginic acid or peptic acid and dihydroxyaluminium aminoacetate sodium alginate. The inorganic salt antacids include calcium hydrogenphosphate, disodium hydrogenphosphate, dipotassium hydrogenphosphate, magnesium hydrogenphosphate, calcium carbonate, sodium carbonate, potassium carbonate, sodium hydrogen carbonate, aluminium carbonate, magnesium carbonate, potassium metasilicate, magnesium aluminate metasilicate, sodium metasilicate, synthetic aluminium silicate, magnesium silicate, aluminium silicate, magnesium aluminate silicate, magnesium-bismuth aluminate silicate, magnesium oxide, alumina-magnesium hydroxide, magnesium peroxide, magnesium hydroxide, aluminium hydroxide, synthetic hydrotarphite, aluminium phosphate and others. Especially, calcium phosphate and magnesium phosphate are preferable. Each of these stabilizers may be used alone or in the form of a mixture. […] A method for stabilization of 16-membered ring macrolide antibiotics of the present invention will be described in detail. The afore-mentioned various 16-membered ring macrolide antibiotics, for example 9-hydroxy 16-membered ring macrolides such as midecamycin, 3"-propionylleucomycin A5 and josamycin and 9-acyloxy 16-membered ring macrolides such as 9,3"-diacetylmidecamycin and 9-propionyljosamycin show extremely poor residual rates when added to an acidic solution of the Japanese Pharmacopoeia lst liquid (pH 1.2) and allowed to stand. That is, the 9hydroxy 16-membered ring maclorides decompose in a short time to by-produce their iso, demycarosyl and/or isodemycarosyl forms. The 9-acyloxy 16-membered ring macrolides decompose, too, to by-produce their 9-deacyl, 9-deacyl-iso, demycarosyl, 9-deacyl-demycarosyl or 9-deacyl-iso-demycarosyl forms. […]

Data set [2] is described as follows: Elution rate of TMS-19-Q with glycine and citric or tartaric acid in diluted physiological saline solution. The data set is classed as physicochemical. To be noted: for elution rate with 40 mg or more of citric acid: citric acid 40 mg or more, saline + water. As for the experimental part:
To 40 ml of physiological saline solution 120 ml of water was added, and after the solution was placed in a vessel whose temperature was kept constant in a thermostat at 37° C., 200 mg of TMS-19-Q, 340 mg of glycine and 0-80 mg of citric acid were added, and the mixture was stirred by a magnetic stirrer. Then sampling thereof was conducted in a lapse of time (at 5 minutes, 15 minutes and 30 minutes) to observe absorbance (wavelength: 232 nm) and elution rate was calculated.
To 40 ml of physiological saline solution 120 ml of water was added, and after the solution was kept in a vessel whose temperature was kept constant in a thermostat controlled at 37° C., 200 mg of TMS-19-Q, 340 mg of glycine and 0-80 mg of tartaric acid were added, and the same procedures as those of Example 27 were followed to examine the elution rate of TMS-19-Q.

`CCCC(=O)OC1C(C)OC(OC2C(C)OC(OC3C(CC=O)CC(C)C(O)/C=C/C=C/CC(C)OC(=O)CC(O)C3OC)C(O)C2N(C)C)CC1(C)OC(=O)CC` (stereo not shown) [TMS-19-Q, 3"-propionyl leucomycin A5]: in data set [1] (150 mg of glycine, value at 30 minutes), the “improvement of stability compared with control, 30 minutes” value amounted to 30%. The “stability in 1st solution (in words)” value in data set [1] (1st solution pH 1.2, no stabilizer) is recorded as “extremely unstable”. Besides, in data set [1] (150-300 mg of tri-sodium citrate, 1st solution), the “stability with tri-sodium citrate (in words)” value is “very much enhanced”. Besides, the “stability with calcium phosphate (in words)” value in data set [1] (150-400 mg of calcium phosphate, 1st solution) is on record as “very much enhanced”. In addition, the “stability with glycine (in words)” value in data set [1] (150-900 mg of glycine, 1st solution) was “stabilized well”. Also, the “stability with L-aspartic acid monosodium salt (in words)” value in data set [1] (200-500 mg of Asp.Na, 1st solution) is on record as “very much enhanced”. The “stability with monosodium glutamate (in words)” value in data set [1] (200-500 mg of Glu.Na, 1st solution) is “very much enhanced”. Further, the degraded at 0.5 h in data set [1] (jp 1st solution, 1st solution pH 1.2, 37° C., 30 minutes, no stabilizer, read-out: decomposites (balance), 30 minutes) is 39.5%. In addition, the remaining at 0.5 h in data set [1] (jp 1st solution, 1st solution pH 1.2, 37° C., 30 minutes, no stabilizer, read-out: residual amount after contact with 1st solution, 30 minutes) came out at 60.5%. Further, the degraded at 1 h in data set [1] (jp 1st solution, 1st solution pH 1.2, 37° C., 60 minutes, no stabilizer, read-out: decomposites (balance), 60 minutes) was 41.4%. The remaining at 1 h in data set [1] (jp 1st solution, 1st solution pH 1.2, 37° C., 60 minutes, no stabilizer, read-out: residual amount after contact with 1st solution, 60 minutes) worked out at 58.6%. In data set [1] (larger amount of glycine (up to 900 mg)), the “stability with a larger amount of glycine (in words)” value is “hardly decomposed”. Also, the “elution rate with 0, 10 or 20 mg of citric acid” value in data set [2] (200 mg potency, 340 mg glycine, pH 5.87, 5.51, 5.18) is reported as “less than 60%”. The “elution rate with 20 mg or 10 mg of citric acid” value in data set [2] (340 mg glycine, citric acid 20 mg or 10 mg, after 15-minute stirring) is 45-55%. The “elution rate with 40 mg or more of citric acid” value in data set [2] (340 mg glycine) was no less than 95%; in data set [2] (340 mg glycine, listed as 3"-propionylleucomycin A5), “more than 95%”. In addition, the “elution rate with 0 mg of citric acid” value in data set [2] (340 mg glycine, no citric acid, after 15-minute stirring) is 10%. The “elution rate with 0 mg of tartaric acid” value in data set [2] (340 mg glycine, no tartaric acid, after 15-minute stirring) is 10%. The “elution rate with 20 mg or 10 mg of tartaric acid” value in data set [2] (340 mg glycine, tartaric acid 20 mg or 10 mg, after 15-minute stirring) is 40-55%. The “elution rate with 40 mg or more of tartaric acid” value in data set [2] (340 mg glycine, tartaric acid 40 mg or more, value at 15 minutes) is no less than 95%. Moreover, the “time within which elution was nearly completed (citric acid)” value in data set [2] (citric acid, solutions whose pH is equal to or less than 4.23) is no more than 15 min. Besides, in data set [2] (tartaric acid, solutions whose pH is equal to or less than 4.09), the “time within which elution was nearly completed (tartaric acid)” value is no more than 15 min.
